According to patent US20210395313A1, “PEPTIDE PAC1 ANTAGONISTS” (AMGEN INC., priority 2017, published 2021):
Where a SMILES comes first, the peptide text is derived from it. Bridges are numbered along the chain shown (N, C = ends). Where no end group is shown, it is not given here.

What follows are molecules tested against T1, rat PAC1 receptor (Rattus norvegicus, UniProt P32215) (assay: LANCE Ultra cAMP accumulation antagonist assay in RG-2 cells;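 note: RG-2 rat glioma cells endogenously expressing PAC1, test peptide preincubated 30 min, then PAC1 agonist added at its EC80 for 15 min, cAMP accumulation read by LANCE Ultra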).
T1 construct: SHSY-5Y (human neuroblastoma cell line) and RG-2 (rat glioma cell line) cells endogenously express human and rat PAC1 receptors, respectively; endogenous in cells; host or cells: RG-2 rat glioma cells
T1 sequence (P32215 20-523): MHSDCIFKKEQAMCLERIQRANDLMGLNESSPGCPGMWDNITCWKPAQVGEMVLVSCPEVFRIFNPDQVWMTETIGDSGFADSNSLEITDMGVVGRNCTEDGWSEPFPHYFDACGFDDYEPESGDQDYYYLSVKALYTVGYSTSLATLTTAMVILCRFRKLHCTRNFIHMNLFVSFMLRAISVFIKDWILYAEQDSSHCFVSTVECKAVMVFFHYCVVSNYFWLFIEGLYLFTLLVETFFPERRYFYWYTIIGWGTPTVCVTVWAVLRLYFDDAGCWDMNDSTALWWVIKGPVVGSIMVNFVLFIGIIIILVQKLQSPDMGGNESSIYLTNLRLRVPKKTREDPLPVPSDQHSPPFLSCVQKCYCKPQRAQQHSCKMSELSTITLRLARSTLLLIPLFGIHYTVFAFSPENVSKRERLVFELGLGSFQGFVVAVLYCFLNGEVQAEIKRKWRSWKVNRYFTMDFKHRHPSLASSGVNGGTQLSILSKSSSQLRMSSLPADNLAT
Assay type: cell-based

Molecule | IC50 [nM]
CC[C@H](C)[C@H](NC(=O)[C@H](C)NC(=O)[C@H](CCCCN)NC(=O)[C@H](CCCNC(=N)N)NC(=O)[C@H](Cc1ccccc1)NC(=O)[C@H](CCC(N)=O)NC(=O)[C@@H]1CSSC[C@H](N)C(=O)N[C@@H](CC(=O)O)C(=O)N[C@@H](C)C(=O)N[C@@H]([C@@H](C)O)C(=O)N1)C(=O)N[C@@H](CC(=O)O)C(=O)N[C@@H](CC(=O)O)C(=O)N[C@H]1CSSC[C@@H](C(=O)N[C@@H](CCSC)C(=O)N[C@@H](CCCCN)C(=O)N[C@@H](CCC(N)=O)C(=O)N[C@@H](CCCCN)C(=O)N[C@@H](CCCCN)C(=O)N[C@@H](CCCCN)C(=O)N[C@@H](CCC(=O)O)C(=O)N[C@@H](Cc2c[nH]c3ccccc23)C(=O)N[C@@H](CCCCN)C(=O)N[C@@H](C)C(=O)N[C@@H](Cc2c[nH]cn2)C(=O)O)NC(=O)[C@H](C)NC(=O)[C@H](CCCCN)NC(=O)[C@H](Cc2ccccc2)NC(=O)[C@H](CO)NC(=O)[C@H](Cc2c[nH]cn2)NC(=O)[C@H](Cc2ccc(O)cc2)NC(=O)[C@H](C)NC(=O)[C@H](CCC(N)=O)NC(=O)[C@H](CCCNC(=N)N)NC(=O)[C@H](C)NC1=O [compound 451] (H-CDATCQFRKAIDDCARQAYHSFKACMKQKKKEWKAH-OH; disulfide 1-5, 14-25) | 1 to 100
CC[C@H](C)[C@H](NC(=O)[C@H](C)NC(=O)[C@H](CCCCN)NC(=O)[C@H](CCCNC(=N)N)NC(=O)[C@H](Cc1ccccc1)NC(=O)[C@H](CCC(N)=O)NC(=O)[C@@H]1CSSC[C@H](N)C(=O)N[C@@H](CC(=O)O)C(=O)N[C@@H](C)C(=O)N[C@@H]([C@@H](C)O)C(=O)N1)C(=O)N[C@@H](CC(=O)O)C(=O)N[C@@H](CC(=O)O)C(=O)N[C@H]1CSSC[C@@H](C(=O)N[C@@H](CCSC)C(=O)N[C@@H](CCCCN)C(=O)N[C@@H](CCC(N)=O)C(=O)N[C@@H](CCCCN)C(=O)N[C@@H](CCCCN)C(=O)N[C@@H](CCCCN)C(=O)N[C@@H](CCC(=O)O)C(=O)N[C@@H](Cc2c[nH]c3ccccc23)C(=O)N[C@@H](CCCCN)C(=O)N[C@@H](C)C(=O)NCC(N)=O)NC(=O)[C@H](CO)NC(=O)[C@H](CCCCN)NC(=O)[C@H](Cc2ccccc2)NC(=O)[C@H](C(C)C)NC(=O)[C@H](CO)NC(=O)[C@H](CO)NC(=O)[C@H](Cc2c[nH]cn2)NC(=O)[C@H](Cc2ccc(O)cc2)NC(=O)[C@H](C)NC(=O)[C@H](CCC(N)=O)NC(=O)[C@H](CCCNC(=N)N)NC(=O)[C@H](C)NC1=O [compound 430] (H-CDATCQFRKAIDDCARQAYHSSVFKSCMKQKKKEWKAG-NH2; disulfide 1-5, 14-27) | < 0.01
CDATCQFRKAIDDCANKSWHSNVPGSVFKLCMKQKKKEWKAGH-NH2 (disulfide 1-5, 14-31) [compound 445] | > 100
CSCC[C@H](NC(=O)[C@H](C)NC(=O)[C@@H](NC(=O)[C@H](CCCCN)NC(=O)[C@H](CCCCN)NC(=O)[C@H](Cc1ccc(O)cc1)NC(=O)[C@H](CC(C)C)NC(=O)[C@H](CO)NC(=O)[C@H](C)NC(=O)[C@@H](NC(=O)[C@H](CC(C)C)NC(=O)CNC(=O)[C@H](CCCCN)NC(=O)[C@H](CCCNC(=N)N)NC(=O)[C@H](Cc1ccc(O)cc1)NC(=O)[C@H](CCC(N)=O)NC(=O)[C@@H]1CSSC[C@H](N)C(=O)N[C@@H](CC(=O)O)C(=O)N[C@@H](C)C(=O)N[C@@H]([C@@H](C)O)C(=O)N1)C(C)C)C(C)C)C(=O)N[C@@H](CCC(N)=O)C(=O)N[C@@H](CCCCN)C(=O)N[C@@H](CCCNC(=N)N)C(=O)N[C@@H](Cc1ccc(O)cc1)C(N)=O [compound 437] (H-CDATCQYRKGLVASLYKKVAMQKRY-NH2; disulfide 1-5) | > 100
CDATCQFRKAIDDCQKQAHHSNVPGSVFKACMKQKKKEFKAGY (disulfide 1-5, 14-31) [compound 164] | 0.01 to 1
CC[C@H](C)[C@H](NC(=O)[C@H](C)NC(=O)[C@H](CCCCN)NC(=O)[C@H](CCCNC(=N)N)NC(=O)[C@H](Cc1ccccc1)NC(=O)[C@H](CCC(N)=O)NC(=O)[C@@H]1CSSC[C@H](N)C(=O)N[C@@H](CC(=O)O)C(=O)N[C@@H](C)C(=O)N[C@@H]([C@@H](C)O)C(=O)N1)C(=O)N[C@@H](CC(=O)O)C(=O)N[C@@H](CC(=O)O)C(=O)N[C@H]1CSSC[C@@H](C(=O)N[C@@H](CCSC)C(=O)N[C@@H](CCCCN)C(=O)N[C@@H](CCC(N)=O)C(=O)N[C@@H](CCCCN)C(=O)N[C@@H](CCCCN)C(=O)N[C@@H](CCCCN)C(=O)N[C@@H](CCC(=O)O)C(=O)N[C@@H](Cc2ccccc2)C(=O)N[C@@H](CCCCN)C(=O)N[C@@H](C)C(=O)NCC(=O)O)NC(=O)[C@H](C)NC(=O)[C@H](CCCCN)NC(=O)[C@H](Cc2ccccc2)NC(=O)[C@H](C(C)C)NC(=O)[C@H](CO)NC(=O)CNC(=O)[C@@H]2CCCN2C(=O)[C@H](C(C)C)NC(=O)[C@H](CC(N)=O)NC(=O)[C@H](CO)NC(=O)[C@H](Cc2c[nH]cn2)NC(=O)[C@H](Cc2c[nH]cn2)NC(=O)[C@H](C)NC(=O)[C@H](CCC(N)=O)NC(=O)[C@H](CCCCN)NC(=O)[C@H](CCC(N)=O)NC1=O [SEQ ID NO 190] | 0.01 to 1
CC[C@H](C)[C@H](NC(=O)[C@H](C)NC(=O)[C@H](CCCCN)NC(=O)[C@H](CCCNC(=N)N)NC(=O)[C@H](Cc1ccccc1)NC(=O)[C@H](CCC(N)=O)NC(=O)[C@@H]1CSSC[C@H](N)C(=O)N[C@@H](CC(=O)O)C(=O)N[C@@H](C)C(=O)N[C@@H]([C@@H](C)O)C(=O)N1)C(=O)N[C@@H](CC(=O)O)C(=O)N[C@@H](CC(=O)O)C(=O)N[C@H]1CSSC[C@@H](C(=O)N[C@@H](CCSC)C(=O)N[C@@H](CCCCN)C(=O)N[C@@H](CCC(N)=O)C(=O)N[C@@H](CCCCN)C(=O)N[C@@H](CCCCN)C(=O)N[C@@H](CCCCN)C(=O)N[C@@H](CCC(=O)O)C(=O)N[C@@H](Cc2c[nH]c3ccccc23)C(=O)N[C@@H](CCCCN)C(=O)N[C@@H](C)C(=O)NCC(=O)N[C@@H](Cc2c[nH]cn2)C(=O)O)NC(=O)[C@H](C)NC(=O)[C@H](CCCCN)NC(=O)[C@H](Cc2ccccc2)NC(=O)[C@H](C)NC1=O [compound 444] (H-CDATCQFRKAIDDCAFKACMKQKKKEWKAGH-OH; disulfide 1-5, 14-19) | 1 to 100
CC[C@H](C)[C@H](NC(=O)[C@H](C)NC(=O)[C@H](CCCCN)NC(=O)[C@H](CCCNC(=N)N)NC(=O)[C@H](Cc1ccccc1)NC(=O)[C@H](CCC(N)=O)NC(=O)[C@H](CO)NC(=O)[C@@H](NC(=O)[C@H](C)N)[C@@H](C)O)C(=O)N[C@@H](CC(=O)O)C(=O)N[C@@H](CC(=O)O)C(=O)N[C@H]1CSSC[C@@H](C(=O)N[C@@H](CCSC)C(=O)N[C@@H](CCCCN)C(=O)N[C@@H](CCC(N)=O)C(=O)N[C@@H](CCCCN)C(=O)N[C@@H](CCCCN)C(=O)N[C@@H](CCCCN)C(=O)N[C@@H](CCC(=O)O)C(=O)N[C@@H](Cc2c[nH]c3ccccc23)C(=O)N[C@@H](CCCCN)C(=O)O)NC(=O)[C@H](C)NC(=O)[C@H](CCCCN)NC(=O)[C@H](Cc2ccccc2)NC(=O)[C@H](C(C)C)NC(=O)[C@H](CO)NC(=O)[C@H](CO)NC(=O)[C@H](Cc2c[nH]cn2)NC(=O)[C@H](Cc2ccc(O)cc2)NC(=O)[C@H](C)NC(=O)[C@H](CCC(N)=O)NC(=O)[C@H](CCCNC(=N)N)NC(=O)[C@H](C)NC1=O [compound 440] (H-ATSQFRKAIDDCARQAYHSSVFKACMKQKKKEWK-OH; disulfide 12-25) | 1 to 100
CSCC[C@H](NC(=O)[C@H](CO)NC(=O)[C@H](C)NC(=O)[C@H](CCCCN)NC(=O)[C@H](Cc1ccccc1)NC(=O)[C@@H](NC(=O)[C@H](CO)NC(=O)[C@H](C)NC(=O)[C@@H](NC(=O)[C@H](CC(C)C)NC(=O)CNC(=O)[C@H](CCCCN)NC(=O)[C@H](CCCNC(=N)N)NC(=O)[C@H](Cc1ccc(O)cc1)NC(=O)[C@H](CCC(N)=O)NC(=O)[C@@H]1CSSC[C@H](N)C(=O)N[C@@H](CC(=O)O)C(=O)N[C@@H](C)C(=O)N[C@@H]([C@@H](C)O)C(=O)N1)C(C)C)C(C)C)C(=O)N[C@@H](CCCCN)C(=O)N[C@@H](CCC(N)=O)C(=O)N[C@@H](CCCCN)C(=O)N[C@@H](CCCCN)C(=O)N[C@@H](CCCCN)C(=O)N[C@@H](CCC(=O)O)C(=O)N[C@@H](Cc1ccccc1)C(=O)N[C@@H](CCCCN)C(=O)N[C@@H](C)C(=O)NCC(=O)O [compound 438] (H-CDATCQYRKGLVASVFKASMKQKKKEFKAG-OH; disulfide 1-5) | > 100
ACDATCQFRKAIDDCQKQAHHSNVPGSVFKACMKQKKKEFKAG-NH2 (disulfide 2-6, 15-32) [compound 184] | 0.01 to 1
CDATCQFRKAIDDCQKQAHHSNVPGSVFKACMKQKKKEFKAN-NH2 (disulfide 1-5, 14-31) [compound 205] | 0.01 to 1
CDATCQFRKAIDDCQKQAHHSNVPGSVFKSCMKQKKKEFKAG-NH2 (disulfide 1-5, 14-31) [compound 207] | 0.01 to 1
MCDATCQFRKAIDDCQKQAHHSNVPGSVFKACMKQKKKEFKAGHHHHHH (disulfide 2-6, 15-32) [compound 204] | 0.01 to 1
